The values that follow come from patent publication US8591865B2, “Renal function analysis method and apparatus” (Pharmacophotonics, Inc., priority 2008, dated 2013).

Series [1] is described as follows: GFR by iohexol plasma clearance in gentamycin-induced AKI dogs. The series is classed as in vivo, dog. As to the method: EDTA-anticoagulated blood was collected at 0, 5, 10, 20, 30, 60, 180, 240 and 300 minutes post-injection, centrifuged within 3 hours, and stored at -20° C.
Series [2] can be described thus: GFR in dog by iohexol analysis. To be noted: 33.0 kg dog.
Description: The higher noise in the data was caused by the movement during the data collection as the dog was not anesthetized.
Series [3] is described as follows: GFR in swine by iohexol plasma disappearance. The series is classed as in vivo, Osawbaw swine. To be noted: same swine.
Series [4] is described as follows: Intravital 2-photon microscopy of plasma clearance (fluorescence intensity / intensity ratio in kidney blood vessels) after bolus infusion. To be noted: kidney of normal male rat, bolus IV infusion of dye mixture, 12-200 seconds.
Description: These images were taken as function of time after a bolus intravenous infusion of a dye mixture containing a FITC-inulin (5.5 kD) and 500 kD dextran labeled with a sulforhodamine 101, i.e. Texas Red®. […] A red blood cell (RBC) appears as a dark object as it excludes dye.
The intensity ratio from the blood vessels in FIG. 3 changes over time with a change of relative concentrations of the two dyes.
Each data point in FIG. 5 was the average ratio value of the same region from a blood vessel extracted from an image time-series (such as the images shown in FIG. 3). The data points were plotted every 0.5 seconds up to 200 seconds.
The subject of series [5] is dogs. In words: Gentamycin-induced acute kidney injury in dogs: serum creatinine, BUN, USG, UPC. The series is classed as in vivo, dog. Conditions: individual dogs; for Creatinine: gentamycin 10 mg/Kg IV q8 hours. From the text:
Five spayed female young adult hound-type mogrel dogs were confirmed to be in good health based on physical examination, complete blood count, blood chemistry analysis, urinalysis, urine protein-to-creatine ratio (UPC) and aerobic urine culture.

As a reminder, the clearance is the rate of elimination divided by the concentration. The low end stands for a low capacity for elimination, the high end for a high capacity for elimination.

Several values for one entry are separate records, joined by “and”; a condition that tells them apart may be missing. Equal values may be shown once. Entries after “also recorded” stand apart in the source; their conditions may differ.

Regarding `CC(=O)N(CC(O)CO)c1c(I)c(C(=O)NCC(O)CO)c(I)c(C(=O)NCC(O)CO)c1I` (stereo not drawn) [iohexol], the “GFR: Iohexol Plasma Clearance” value in series [1] (Day 0, 150 mg/kg iohexol IV, individual dogs (repeat results for two dogs), 150 mg/kg) is 2.77 mL/min/kg and 4.00 mL/min/kg and 3.71 mL/min/kg and 3.82 mL/min/kg and 4.40 mL/min/kg; in series [1] (Day 3 of gentamycin, individual dogs), 2.00 mL/min/kg and 3.45 mL/min/kg and 2.05 mL/min/kg and 4.17 mL/min/kg and 3.06 mL/min/kg; in series [1] (Day 6 of gentamycin, individual dogs), 2.78 mL/min/kg and 2.05 mL/min/kg and 2.46 mL/min/kg and 1.44 mL/min/kg and 3.36 mL/min/kg; in series [1] (Day 9 of gentamycin, individual dogs), 1.87 mL/min/kg and 0.10 mL/min/kg and 1.49 mL/min/kg and 2.47 mL/min/kg. This molecule also came in with a clearance in series [1] (hound-type mongrel, dog, plasma, iv, 150 mg/kg, GFR: Iohexol Plasma Clearance, Day 0, 150 mg/kg iohexol IV, individual dogs (repeat results for two dogs)) of 3.28 mL/min/kg. The “GFR obtained from iohexol analysis” value in series [2] came to 4.50 mL/min/kg. Further, the “GFR obtained using iohexol samples drawn for six hours” value in series [3] was 2.02 mL/min/kg.
As to “fluorescein isothiocyanate-inulin [FITC-inulin]”, in series [4], the “glomerular filtration / plasma clearance seen as capillary fluorescence intensity over time” value is on record as “rapidly filtered into the proximal tubular lumen; also recorded: immediate plasma clearance”.
Take gentamycin: the BUN in series [5] (Day 0 (baseline)) was 20 mg/dl (2×) and 14 mg/dl and 16 mg/dl and 9 mg/dl; in series [5] (Day 3), 16 mg/dl and 12 mg/dl (2×) and 15 mg/dl and 14 mg/dl; in series [5] (Day 6), 22 mg/dL and 15 mg/dL and 16 mg/dL and 10 mg/dL and 14 mg/dL; in series [5] (Day 9), 16 mg/dl (2×) and 97 mg/dl and 18 mg/dl and 14 mg/dl. For the same molecule, the “UPC (urine protein-to-creatine ratio)” value in series [5] (Day 0 (baseline)) was 0.1 (4×) and 0.2; in series [5] (Day 3) it was 0.5 and 1.0 and 0.2 and 0.3 (2×); in series [5] (Day 6) it was 0.5 (2×) and 0.0 (2×) and 0.6; in series [5] (Day 9), 2.1 and 2.8 and 3.1 and 1.7 and 1.6. The “USG (urine specific gravity)” value in series [5] (Day 0 (baseline)) was 1.014 and 1.030 and 1.048 and 1.044 and 1.052; in series [5] (Day 3), 1.008 and 1.014 (2×) and 1.000 and 1.010; in series [5] (Day 6), 1.009 and 1.003 and 1.007 and 1.005 and 1.010; in series [5] (Day 9), 1.006 (2×) and 1.011 and 1.004 and 1.005. Besides, the Creatinine is 0.8 mg/dl and 1.1 mg/dl and 0.9 mg/dl (2×) and 0.7 mg/dl in series [5] (Day 0 (first day of injection, baseline)); 0.9 mg/dl (2×) and 1.0 mg/dl (2×) and 0.8 mg/dl in series [5] (Day 3); 1.2 mg/dl and 1.5 mg/dl and 1.4 mg/dl and 1.0 mg/dl (2×) in series [5] (Day 6); 1.5 mg/dL and 5.3 mg/dL and 1.9 mg/dL and 1.6 mg/dL and 1.1 mg/dL in series [5] (Day 9).
